In this assay the target is TRAP protein (Staphylococcus aureus, UniProt Q6GFM2). It counts as biochemical. The conditions noted are these: for in vitro phosphorylation of TRAP protein by using metal ions: 20 μM or 200 μM metal ions, 37° C. 30 minutes, FIG. 2; for metal ion concentration above which TRAP protein is maximally phosphorylated: various ion concentrations, other conditions as Example 3, FIG. 3; for TRAP phosphorylation induced by oxidative and reductive agents: same procedure as Example 3, FIG. 5. Also noted: 6xHis (C); made in house; host or cells: Escherichia coli. How it is done: The TRAP protein obtained in Example 2 was prepared with each tube according to following compositions of Table 2.
The protein sample prepared above was reacted at 37° C. for 30 minutes, then mixed with 2× loading dye 10 l (BioRad), and analyzed by performing SDS-PAGE at 150 V for an hour. Afterward, the resulting gel was dried and exposed onto an X-ray film to measure a degree of phosphorylation. The result is illustrated in FIG. 2. In the upper part of FIG. 2, 20 μM metal ions, Mg, Zn, Cu, Fe, Mn, Ni, Co are used in Lane 1 through Lane 7, respectively. In the lower part of FIG. 2, 200 μM metal ions, Mg, Cu, Zn, Ni, Co, Ca are used in Lane 1 through Lane 7, respectively.
Generally, a protein kinase binds with ATP, hydrolyzes ATP into ADP and attaches a resulting phosphate onto a specific amino acid of the protein to phosphorylate. In this process, Mg^2+ ions play a role of a subsidiary enzyme to stabilize the kinase binding with phosphates of ATP. […] The present inventors have attempted to elucidate why the TRAP protein utilizes the transition metal ions. […] Various oxidative and reductive agents were used to induce a phosphorylation in this Example.
In order to measure the TRAP phosphorylation, a quantitative analysis was performed by using FeSO4, ZnCl2 and CuCl2, in this Example. FeSO4, ZnCl2 and CuCl2, were added to each reaction at various ion concentrations and other conditions of the phosphorylation are the same as that of Example 3. The result is illustrated in FIG. 3.

Structures are written as SMILES.

Sequence of TRAP protein (Q6GFM2 whole entry): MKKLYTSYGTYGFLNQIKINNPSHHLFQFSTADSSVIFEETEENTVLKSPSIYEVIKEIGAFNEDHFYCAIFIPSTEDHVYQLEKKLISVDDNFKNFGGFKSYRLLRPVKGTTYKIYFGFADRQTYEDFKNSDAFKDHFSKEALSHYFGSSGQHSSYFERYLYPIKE

As to `[Cl][Cu][Cl]` [CuCl2], the “in vitro phosphorylation of TRAP protein by using metal ions” value (shortened to “in vitro phosphorylation of TRAP protein”) is on record as “in vitro phosphorylated” and the “metal ion concentration above which TRAP protein is maximally phosphorylated” value is greater than 20 µM.

For the compound `O=S(=O)([O-])[O-].[Fe+2]` [FeSO4], the “in vitro phosphorylation of TRAP protein” value is on record as “in vitro phosphorylated” and the “metal ion concentration above which TRAP protein is maximally phosphorylated” value was greater than 2 µM.

As to `OO` [H2O2, reference compound], the “TRAP phosphorylation induced by oxidative and reductive agents” value is “induced”.

Take `[Cl-].[Cl-].[Mg+2]` [Mg^2+, MgCl2]: the “in vitro phosphorylation of TRAP protein” value is reported as “not phosphorylated”.

As to `[Cl-].[Cl-].[Zn+2]` [ZnCl2], the “in vitro phosphorylation of TRAP protein” value is “in vitro phosphorylated” and the “metal ion concentration above which TRAP protein is maximally phosphorylated” value is greater than 100 µM.

Consider `O=C1O[C@H]([C@@H](O)CO)C(O)=C1O` [ascorbic acid, reference compound], for which the “TRAP phosphorylation induced by oxidative and reductive agents” value was “not”. Also, the “TRAP phosphorylation inhibited by a reducing agent” value (summary statement) was “inhibited”.
